Measurements taken from the OligoGym collection.
“And” between values parts separate entries of the source, which are not always exact repeats. Identical values can stand only once. After the bases stand the sugars from the 5' end (letter, count) and the backbone: PS all phosphorothioate, else s phosphorothioate and o phosphodiester by linkage. Methylation of C is not given here. e = 2'-O-(2-methoxyethyl) (MOE); k = constrained ethyl (cEt); d = 2'-deoxy (DNA); m = 2'-O-methyl

Target: HSD17B13
Conditions: ASO, HepaRG

Sequence	target mRNA inhibition (1 µM)	other results
ATCAAATGTATGTGCT (sugars k3 d10 k3, PS)	73%	
ATCCUATATACATCCA (sugars k3 d1 m1 d8 k3, PS)	64%	
GACAGGTAATTAATCT (sugars k3 d10 k3, PS)	60%	
AGTGCTTTTGTGATCC (sugars k3 d10 k3, PS)	25%	
CTATATAAATTCTGAC (sugars k3 d10 k3, PS)	0%	
AGTCAGTATCCCCTCA (sugars k3 d10 k3, PS)	82%	target mRNA inhibition (0.02 µM): 6%; target mRNA inhibition (0.078 µM): 14%; target mRNA inhibition (0.313 µM): 32%; target mRNA inhibition (1.25 µM): 70%; target mRNA inhibition (5 µM): 74%
ATGAGAACAATCTCCC (sugars k3 d10 k3, PS)	65%	target mRNA inhibition (0.02 µM): 0%; target mRNA inhibition (0.078 µM): 9%; target mRNA inhibition (0.313 µM): 40%; target mRNA inhibition (1.25 µM): 64%; target mRNA inhibition (5 µM): 78%
TCACCTTTCATAATGT (sugars k3 d1 m1 d8 k3, PS)	47%	
AACCAATATGCTCTGT (sugars k3 d10 k3, PS)	51%	
GTCACCTTTCATAATG (sugars k3 d10 k3, PS)	45%	
TGGATTACATACAAGA (sugars k3 d10 k3, PS)	68% and 50%	target mRNA inhibition (0.02 µM): 0%; target mRNA inhibition (0.078 µM): 0%; target mRNA inhibition (0.313 µM): 21%; target mRNA inhibition (1.25 µM): 58%; target mRNA inhibition (5 µM): 87%
TGCTGGAACAATATGG (sugars k3 d10 k3, PS)	36%	
AAATAGAGTCGGTCAC (sugars k3 d9 k3 e1, PS)	48%	
CAAGAGGATAGTCCAT (sugars k3 d10 k3, PS)	58%	
TAGTTATCTTCTCACT (sugars k3 d10 k3, PS)	52%	
CATAAGTTACCAGAGC (sugars k3 d10 k3, PS)	80%	target mRNA inhibition (0.02 µM): 26%; target mRNA inhibition (0.078 µM): 41%; target mRNA inhibition (0.313 µM): 63%; target mRNA inhibition (1.25 µM): 86%; target mRNA inhibition (5 µM): 94%
CCCTAAGTTATTATCC (sugars k3 d10 k3, PS)	25%	
TTGGCCGAGGAGGGCG (sugars k3 d10 k3, PS)	3%	
AATATGGGATGAGGTA (sugars kkdddddddddkekek, PS)	52%	
ACCAAGGCCATGACAT (sugars k3 d10 k3, PS)	17%	
AGCCTTAGAGTGAATC (sugars k3 d10 k3, PS)	74%	target mRNA inhibition (0.02 µM): 35%; target mRNA inhibition (0.078 µM): 54%; target mRNA inhibition (0.313 µM): 84%; target mRNA inhibition (1.25 µM): 94%; target mRNA inhibition (5 µM): 89%
CTTACCAATATGGGAT (sugars k3 d10 k3, PS)	11%	
TAGGGAGGTAGCTTTT (sugars k3 d10 k3, PS)	46%	

Sequence	target mRNA inhibition (1 µM)	other results
ACACTAATATTGAGGC (sugars kkdddddddddkekek, PS)	55%	
ATCCTGTAAACACTTC (sugars k3 d10 k3, PS)	79%	target mRNA inhibition (0.02 µM): 11%; target mRNA inhibition (0.078 µM): 13%; target mRNA inhibition (0.313 µM): 27%; target mRNA inhibition (1.25 µM): 66%; target mRNA inhibition (5 µM): 87%
TGGGACCAAGGATATA (sugars k3 d9 k3 e1, PS)	55%	
AAGTGCTTTTGTGATC (sugars k3 d10 k3, PS)	41%	
ATATACATCCAAGTAA (sugars k3 d10 k3, PS)	18%	
GAGCATAAGTTACCAG (sugars k3 d10 k3, PS)	61%	
ATTACTTCTGATGTCC (sugars k3 d10 k3, PS)	65%	
CATATCCAGTAGGTGT (sugars k3 d10 k3, PS)	37%	
GCTGAGAGTTCTACAC (sugars k3 d10 k3, PS)	45%	
AGTAATCACAAGTAAG (sugars k3 d10 k3, PS)	54%	
AATAGGAGAGTCTTTC (sugars k3 d10 k3, PS)	47%	
TTGGAATGCTACTTGA (sugars k3 d1 m1 d8 k3, PS)	65%	
AGTGAAATCTTGTGTA (sugars k3 d10 k3, PS)	41%	
TCTTAAACCTTCCCTG (sugars k3 d10 k3, PS)	21%	
CAAGGAGTATGACAAC (sugars k3 d10 k3, PS)	6%	
TCATAGTTTATATGGA (sugars k3 d10 k3, PS)	44%	
CCTTATACTGAAGGCT (sugars k3 d10 k3, PS)	41%	
GATACCCAGGTTGCTT (sugars k3 d10 k3, PS)	53%	
AGGAUAGTCCATGCAA (sugars k3 d1 m1 d8 k3, PS)	55%	
ATCTAGAACACTTGCC (sugars k3 d10 k3, PS)	27%	
TCTTGACAATGGTTGC (sugars k3 d10 k3, PS)	77%	
ACCAAGAGACACCACC (sugars k3 d10 k3, PS)	41%	
CTGCTACTCTAGGAGA (sugars k3 d10 k3, PS)	66%	

Sequence	target mRNA inhibition (1 µM)	other results
GACATGAGGTTTTGAT (sugars k3 d9 k3 e1, PS)	55%	
TAGAGTCGGTCACCTT (sugars k3 d9 k3 e1, PS)	59%	
GCGATAGATCTCTTCT (sugars k3 d10 k3, PS)	24%	
TTGCAGTTATTAGAAG (sugars k3 d1 m1 d8 k3, PS)	17%	
AACTGAAACGATCCTC (sugars k3 d10 k3, PS)	52%	
TGTGACGATGTGGCCA (sugars k3 d10 k3, PS)	42%	
TCTGGGACCAAGGATA (sugars k3 d10 k3, PS)	30%	
TGCTAGTGCCAAACCA (sugars k3 d10 k3, PS)	78%	target mRNA inhibition (0.02 µM): 3%; target mRNA inhibition (0.078 µM): 9%; target mRNA inhibition (0.313 µM): 49%; target mRNA inhibition (1.25 µM): 58%; target mRNA inhibition (5 µM): 89%
CGACTCCAAGTAGGAG (sugars k3 d10 k3, PS)	10%	
ATGGGATGAGGTAAGG (sugars k3 d10 k3, PS)	46%	
CATAGTGGACTTCATT (sugars k3 d10 k3, PS)	34%	
CATCTAGAATTAAGGG (sugars k3 d10 k3, PS)	53%	
CCTTACCAGAATTTAC (sugars k3 d10 k3, PS)	63%	
TACAGATTGGAATGCT (sugars k3 d1 m1 d8 k3, PS)	60%	
AGCTGTGCACTCATTC (sugars k3 d10 k3, PS)	57%	
GTTGCACCGTTTTGGG (sugars k3 d10 k3, PS)	56%	
GACATAACTACTTCAG (sugars k3 d10 k3, PS)	66%	
TTTAGGGAGGTAGCTT (sugars k3 d10 k3, PS)	24%	
GCAGAATATATACTAG (sugars k3 d10 k3, PS)	55%	
TGAAAACTCAGCCAGC (sugars k3 d10 k3, PS)	77%	target mRNA inhibition (0.02 µM): 15%; target mRNA inhibition (0.078 µM): 33%; target mRNA inhibition (0.313 µM): 65%; target mRNA inhibition (1.25 µM): 80%; target mRNA inhibition (5 µM): 95%
GAAAACTCAGCCAGCA (sugars k3 d10 k3, PS)	78%	target mRNA inhibition (0.02 µM): 0%; target mRNA inhibition (0.078 µM): 2%; target mRNA inhibition (0.313 µM): 51%; target mRNA inhibition (1.25 µM): 73%; target mRNA inhibition (5 µM): 75%
CGTTTTGGGCTAATGA (sugars k3 d9 k3 e1, PS)	52%	
GTATTCCATAAAGCTG (sugars k3 d10 k3, PS)	10%	

Sequence	target mRNA inhibition (1 µM)	other results
TTAGCAAGCTAAGAGA (sugars k3 d10 k3, PS)	42%	
ATCCTATATACATCCA (sugars k3 d10 k3, PS)	76%	target mRNA inhibition (0.02 µM): 3%; target mRNA inhibition (0.078 µM): 8%; target mRNA inhibition (0.313 µM): 36%; target mRNA inhibition (1.25 µM): 72%; target mRNA inhibition (5 µM): 92%
CGCATGCGCAGTGACG (sugars k3 d10 k3, PS)	46%	
TTTGAGAGAACTTATA (sugars k3 d10 k3, PS)	0%	
TCGGTCACCTTTCATA (sugars kkdddddddddkekek, PS)	63%	
TTATAACTACAAGAGG (sugars k3 d10 k3, PS)	68%	target mRNA inhibition (0.02 µM): 1%; target mRNA inhibition (0.078 µM): 25%; target mRNA inhibition (0.313 µM): 26%; target mRNA inhibition (1.25 µM): 60%; target mRNA inhibition (5 µM): 82%
CAGCATCAAGACATTC (sugars k3 d1 m1 d8 k3, PS)	52%	
CCATCCCCTAAGTTAT (sugars k3 d10 k3, PS)	14%	
ATGTCATAAAAATCGC (sugars k3 d10 k3, PS)	53%	
AAATTTCAGTACCCAG (sugars k3 d10 k3, PS)	46%	
TTGATAAAATAGGGTG (sugars k3 d10 k3, PS)	46%	
CAAAAGACTTTGAGAC (sugars k3 d10 k3, PS)	22%	
TAAGCAGAATTGTGAA (sugars k3 d1 m1 d8 k3, PS)	26%	
GAAGTTCTGATGTCAG (sugars k3 d10 k3, PS)	0%	
GCTGTAATTAGGAAGA (sugars k3 d10 k3, PS)	24%	
TAAACCTTCCCTGTGT (sugars k3 d10 k3, PS)	17%	
CAGAGACATGAGGTTT (sugars kkdddddddddkekek, PS)	61%	
TGTGTTAGCTTTAATT (sugars k3 d10 k3, PS)	38%	
TCTAAACATCTCTGGG (sugars k3 d9 k3 e1, PS)	42%	
GACAACTGATGTCCAG (sugars k3 d10 k3, PS)	12%	
GAGTGCATCTTAAGAT (sugars kkdddddddddkekek, PS)	27%	
TATGAAGTTAGTATAG (sugars kkdddddddddkekek, PS)	47%	
